Reference: patent US20060276464A1, “Diarylsulfone sulfonamides and use thereof” (Wyeth, priority 2005, published 2006)
Values joined by “and” are separate entries in the source; they are usually repeats but may differ in a detail not shown here. Equal entries are not always repeated. Where two headings read alike, the source gives them in different places.

Experiments:
SFRP-1 [1] = molecular target: T1, SFRP-1 (Homo sapiens, UniProt Q8N474); experiment: Fluorescence polarization binding assay (competitive displacement of a probe compound from SFRP-1); conditions: fluorescence anisotropy, 45 nM SFRP-1, 20 nM probe;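 note: test compound competes with a fluorescent probe held by SFRP-1, seen as a drop in probe anisotropy after incubation in darkness, with anisotropy as function of rising compound dose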
T1 sequence (Q8N474 32-314): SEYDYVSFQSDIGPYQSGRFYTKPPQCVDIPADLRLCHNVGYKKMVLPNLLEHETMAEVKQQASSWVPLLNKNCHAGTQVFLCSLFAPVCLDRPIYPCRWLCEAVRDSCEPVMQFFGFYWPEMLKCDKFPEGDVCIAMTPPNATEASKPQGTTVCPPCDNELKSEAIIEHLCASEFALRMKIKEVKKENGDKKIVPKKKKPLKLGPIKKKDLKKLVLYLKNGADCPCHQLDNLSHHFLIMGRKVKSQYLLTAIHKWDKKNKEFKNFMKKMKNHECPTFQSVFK

SFRP-1 [2] = molecular target: T1, SFRP-1; experiment: Cell-based assay for in vitro measurement of SFRP-1/SARP2 antagonist activity (U2OS cells co-transfected with 16x TCF-tk-Luciferase reporter, Wnt and hSFRP-1); conditions: for fold induction at 10 µM / fold induction at 15 µM: U2OS; for fold induction at 10 µM: read-out: Fold Induction with SFRP-1, U2OS cells, single dose 10 μM, luciferase reporter, fold induction over SFRP-1 control;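 for all read-outs here: U2OS cells co-transfected with a TCF-tk luciferase reporter, a Wnt vector, hSFRP-1 or empty vector and CMV-βgal, luciferase luminescence read in cell lysates alongside βgal activity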
[3] = read-out: Fold Induction with SFRP-1, Conc 15 μM, single dose, luciferase reporter, fold induction over SFRP-1 control, cells with SFRP-1
[4] = read-out: Fold Induction without SFRP-1, Conc 15 μM, single dose, luciferase reporter, cells without SFRP-1 (specificity control)
[5] = read-out: Fold Induction with SFRP-1, Conc 15 μM, with SFRP-1, fold induction over SFRP-1 control, single dose
[6] = read-out: Fold Induction without SFRP-1, Conc 15 μM, without SFRP-1, single dose

IC50 (SFRP-1 [1])	EC50 (SFRP-1 [2]) [µM]	fold induction at 10 µM (SFRP-1 [2])	fold induction at 15 µM (SFRP-1 [2]; [5])	fold induction at 15 µM (SFRP-1 [2]; [6])	SMILES	also measured
0.19 µM	0.871	2.9	–	–	O=C(O)CCCC(=O)N1CCC(NS(=O)(=O)c2cc(S(=O)(=O)c3ccccc3)ccc2C(F)(F)F)C1 (centres unmarked) [Example 895, 5-oxo-5-[3-({[5-(phenylsulfonyl)-2-(trifluoromethyl)phenyl]sulfonyl}amino)pyrrolidin-1-yl]pentanoic acid]	–
2 µM and 4 µM	–	–	–	–	CC(C)c1ccc(S(=O)(=O)c2ccc(N(C)C)cc2)cc1S(=O)(=O)NCC1CCOCC1 [Example 545, 5-{[4-(dimethylamino)phenyl]sulfonyl}-2-isopropyl-N-(tetrahydro-2H-pyran-4-ylmethyl)benzenesulfonamide]	fold induction at 15 µM (SFRP-1 [2]; [3]): 2.5; fold induction at 15 µM (SFRP-1 [2]; [4]): 1.1
0.2 µM	2.29	1.4	–	–	Cc1cc2cc(S(=O)(=O)c3ccc(C(F)(F)F)c(S(=O)(=O)NC4CCNCC4)c3)ccc2n1C [Example 792, 5-[(1,2-dimethyl-1H-indol-5-yl)sulfonyl]-N-piperidin-4-yl-2-(trifluoromethyl)benzenesulfonamide]	–
1.9 µM	–	3.3	–	–	CC(C)c1ccc(S(=O)(=O)c2ccc(F)cc2)cc1S(=O)(=O)NCC(O)c1cccnc1 (centres unmarked) [Example 731, 5-[(4-fluorophenyl)sulfonyl]-N-(2-hydroxy-2-pyridin-3-ylethyl)-2-isopropylbenzenesulfonamide]	–
0.9 µM	3.08	–	–	–	O=C(O)c1ccc(-c2cccc(CNS(=O)(=O)c3cc(S(=O)(=O)c4ccccc4)ccc3C(F)(F)F)c2)cc1 [Example 997, 3′-[({[5-(phenylsulfonyl)-2-(trifluoromethyl)phenyl]sulfonyl}amino)methyl]biphenyl-4-carboxylic acid]	–
3 µM	–	–	–	–	Cc1ccc(S(=O)(=O)c2ccccc2)cc1S(=O)(=O)NC1CCN(C(=O)N2CCOCC2)CC1 [Example 502, 2-methyl-N-[1-(morpholin-4-ylcarbonyl)piperidin-4-yl]-5-(phenylsulfonyl)benzenesulfonamide]	fold induction at 15 µM (SFRP-1 [2]; [3]): 2.9; fold induction at 15 µM (SFRP-1 [2]; [4]): 1
1 µM	–	–	3.9	1	CC(C)c1ccc(S(=O)(=O)c2ccc(F)cc2)cc1S(=O)(=O)NCCc1c[nH]cn1 [Example 442, 5-[(4-fluorophenyl)sulfonyl]-N-[2-(1H-imidazol-4-yl)ethyl]-2-isopropylbenzenesulfonamide]	–
0.9 µM	5.57	2.2	–	–	CC(C)c1ccc(S(=O)(=O)c2ccccc2)cc1S(=O)(=O)NC[C@H]1CC[C@H](C(=O)O)CC1 [Example 954, trans-4-[({[2-isopropyl-5-(phenylsulfonyl)phenyl]sulfonyl}amino)methyl]cyclohexanecarboxylic acid]	–
0.18 µM	1.1	–	–	–	O=C(c1cc(Cl)cnc1Cl)N1CCC(NS(=O)(=O)c2cc(S(=O)(=O)c3ccccc3)ccc2C(F)(F)F)CC1 [Example 977, N-{1-[(2,5-dichloropyridin-3-yl)carbonyl]piperidin-4-yl}-5-(phenylsulfonyl)-2-(trifluoromethyl)benzenesulfonamide]	–
2.8 µM	2.73	2.3	–	–	COC(=O)[C@H]1CC[C@H](CNS(=O)(=O)c2cc(S(=O)(=O)c3ccccc3)ccc2C(C)C)CC1 [Example 934, methyl trans-4-[({[2-isopropyl-5-(phenylsulfonyl)phenyl]sulfonyl}amino)methyl]cyclohexanecarboxylate]	–
0.3 µM and 0.6 µM	–	–	3.4	1	CCc1ccc(S(=O)(=O)c2ccccc2)cc1S(=O)(=O)NCCCn1ccnc1 [Example 231, 2-ethyl-N-[3-(1H-imidazol-1-yl)propyl]-5-(phenylsulfonyl)benzenesulfonamide]	Fold Induction with SFRP-1 (SFRP-1 [2]; Conc 15 μM, with SFRP-1, fold induction over SFRP-1 control, single dose): 2.8 fold; Fold Induction without SFRP-1 (SFRP-1 [2]; Conc 15 μM, without SFRP-1, single dose): 0.8 fold
0.3 µM	0.582	3.4	–	–	O=C(c1ccccc1OC(F)(F)F)N1CCC(NS(=O)(=O)c2cc(S(=O)(=O)c3ccccc3)ccc2C(F)(F)F)CC1 [Example 758, 5-(phenylsulfonyl)-N-{1-[2-(trifluoromethoxy)benzoyl]piperidin-4-yl}-2-(trifluoromethyl)benzenesulfonamide]	–
8 µM	–	–	3.4	1.1	COC(=O)CCNS(=O)(=O)c1cc(S(=O)(=O)c2ccccc2)ccc1C [Example 204, methyl N-{[2-methyl-5-(phenylsulfonyl)phenyl]sulfonyl}-beta-alaninate]	–
0.21 µM	0.945	–	–	–	CN(CCNS(=O)(=O)c1cc(S(=O)(=O)c2ccccc2)ccc1C(F)(F)F)C(=O)N[C@@H]1CCCN(C(=O)OC(C)(C)C)C1 [Example 1009, tert-butyl (3R)-3-[({methyl[2-({[5-(phenylsulfonyl)-2-(trifluoromethyl)phenyl]sulfonyl}amino)ethyl]amino}carbonyl)amino]piperidine-1-carboxylate]	–
1.1 µM	–	–	–	–	O=S(=O)(NCCc1ccncc1)c1cc(S(=O)(=O)c2ccccc2)ccc1Cl [Example 641, 2-chloro-5-(phenylsulfonyl)-N-(2-pyridin-4-ylethyl)benzenesulfonamide]	fold induction at 15 µM (SFRP-1 [2]; [3]): 3; fold induction at 15 µM (SFRP-1 [2]; [4]): 1
0.8 µM	–	2.5	–	–	CC(C)COC(=O)N(C)CCNS(=O)(=O)c1cc(S(=O)(=O)c2ccccc2)ccc1C(F)(F)F [Example 870, isobutyl methyl[2-({[5-(phenylsulfonyl)-2-(trifluoromethyl)phenyl]sulfonyl}amino)ethyl]carbamate]	–
0.9 µM	–	–	3.2	0.9	Cc1cc(C)c(S(=O)(=O)c2ccccc2)cc1S(=O)(=O)NCCn1ccnc1 [Example 324, N-[2-(1H-imidazol-1-yl)ethyl]-2,4-dimethyl-5-(phenylsulfonyl)benzenesulfonamide]	–
1 µM	–	–	2.9	0.9	Cc1cc(C)c(S(=O)(=O)c2ccc(F)cc2)cc1S(=O)(=O)NCCn1ccnc1 [Example 329, 5-[(4-fluorophenyl)sulfonyl]-N-[2-(1H-imidazol-1-yl)ethyl]-2,4-dimethylbenzenesulfonamide]	–
1.4 µM	–	–	2.2	1	Cc1ccc(S(=O)(=O)c2cc(Cl)cc(Cl)c2)cc1S(=O)(=O)NCCCn1ccnc1 [Example 344, 5-[(3,5-dichlorophenyl)sulfonyl]-N-[3-(1H-imidazol-1-yl)propyl]-2-methylbenzenesulfonamide]	–
4 µM	–	1.3	–	–	O=C(O)CCNS(=O)(=O)c1cc(S(=O)(=O)c2ccccc2)ccc1C(F)(F)F [Example 889, N-{[5-(phenylsulfonyl)-2-(trifluoromethyl)phenyl]sulfonyl}-[…]-alanine]	–
3 µM	–	–	2.6	1.1	Cc1cc(C)c(S(=O)(=O)c2ccccc2)cc1S(=O)(=O)NCCC1CCOCC1 [Example 328, 2,4-dimethyl-5-(phenylsulfonyl)-N-(2-tetrahydro-2H-pyran-4-ylethyl)benzenesulfonamide]	–
0.6 µM	1.57	3.2	–	–	CC(C)(C)c1ccc(C(=O)N2CCC(NS(=O)(=O)c3cc(S(=O)(=O)c4ccccc4)ccc3C(F)(F)F)C2)cc1 (centres unmarked) [Example 761, N-[1-(4-tert-butylbenzoyl)pyrrolidin-3-yl]-5-(phenylsulfonyl)-2-(trifluoromethyl)benzenesulfonamide]	–
3 µM	–	–	–	–	CCCc1ccc(S(=O)(=O)c2ccccc2)cc1S(=O)(=O)NCCC1CCOCC1 [Example 553, 5-(Phenylsulfonyl)-2-propyl-N-[2-(tetrahydro-2H-pyran-4-yl)ethyl]benzenesulfonamide]	fold induction at 15 µM (SFRP-1 [2]; [3]): 2.5; fold induction at 15 µM (SFRP-1 [2]; [4]): 1.1
0.3 µM	1.14	3.3	–	–	O=S(=O)(NC1CCOCC1)c1cc(S(=O)(=O)c2ccc(F)cc2)ccc1C(F)(F)F [Example 817, 5-[(4-fluorophenyl)sulfonyl]-N-(tetrahydro-2H-pyran-4-yl)-2-(trifluoromethyl)benzenesulfonamide]	–
0.9 µM	–	–	–	–	Cc1c(C#N)cccc1S(=O)(=O)c1ccc(C(C)C)c(S(=O)(=O)NCCc2ccccn2)c1 [Example 593, 5-[(3-cyano-2-methylphenyl)sulfonyl]-2-isopropyl-N-(2-pyridin-2-ylethyl)benzenesulfonamide]	fold induction at 15 µM (SFRP-1 [2]; [3]): 2; fold induction at 15 µM (SFRP-1 [2]; [4]): 1.1
5 µM	–	–	2.2	1	CC(C)c1ccc(S(=O)(=O)c2ccc(C(C)(C)C)cc2)cc1S(=O)(=O)NC1CCOCC1 [Example 437, 5-[(4-tert-butylphenyl)sulfonyl]-2-isopropyl-N-(tetrahydro-2H-pyran-4-yl)benzenesulfonamide]	–
